Reference: PubChem BioAssay AID652063 (Molecular Libraries Program, Specialized Chemistry Center, …, 2013)
Calls of active or inactive are those of the source. The rule behind the calls is not given here.

These molecules were tested on mouse cells, CHOP mRNA qRT-PCR (assay: CHOP mRNA level inhibitors by qRT-PCR in mouse cells at medium throughput (AID 652063)).

Compound | IC50
Cc1ccc(NC(=O)c2cc3ccccc3oc2=O)cc1S(=O)(=O)N(C)C | > 20 µM (inactive)
Cc1ccc(NC(=O)O/N=C/c2c(C)nn(C(C)(C)C)c2C)cc1Cl | 4.53 µM (inactive)
Cc1nn(C(C)(C)C)c(C)c1/C=N/OC(=O)Nc1ccc(Cl)cc1 | 18.4 µM (inactive)
Cc1cc(C(=O)COC(=O)c2ccccc2O)c(C)n1Cc1cccs1 | 6.12 µM (inactive)
CCN=C1NN=C(c2cc(C)n(Cc3ccco3)c2C)CS1 | 3.73 µM (inactive)
CCOc1ccc(-c2nc(CSCC(=O)NCc3ccco3)c(C)o2)cc1 | 4.37 µM (inactive)
C=CCn1c(C)cc(C2=NN=C(NCC)SC2)c1C | 6.18 µM (inactive)
Cc1cc(C2=NNC(=NC3CC3)SC2)c(C)n1-c1ccccc1F | 2.89 µM (inactive)
CC(C)(C)c1ccc(-c2noc(CCC(N)=O)n2)cc1 | > 20 µM (inactive)
Cc1cc(C2=NNC(=NC3CC3)SC2)c(C)n1-c1ccccc1 | 3.58 µM (inactive)
CC(C)(C)c1ccc(C(=O)Nc2ccc(CC(=O)O)cc2)o1 | > 20 µM (inactive)
